{
  "source": "patent US11787805B2",
  "about": "“N-oxide inhibitors of NLRP3 inflammasome” (BioAge Labs, Inc., priority 2022, dated 2023)",
  "test": "Human Liver Microsome Stability Assay (HLM)",
  "type": "in vitro ADME",
  "details": "for half-life: human, liver microsomes, read-out: HLM t1/2",
  "description": "The stability of the N-oxide compounds provided herein was studied compared to analogs not having N-oxide. […] This enhanced metabolic stability corresponds to an extended half-life and duration of action when dosed in vivo.",
  "data": [
    {"molecule": "CCOc1cc(C(=O)N(C)Cc2cncc3cn[nH]c23)ccc1-c1cccc(F)c1", "note": "[A]", "values": [
      {"measurement": "HLM t1/2", "setting": "human liver microsomes", "value": 3.7, "unit": "min"}
    ]},
    {"molecule": "CCOc1cc(C(=O)N(C)Cc2cncc3cn[nH]c23)ccc1-c1cccc(F)c1", "note": "[B]", "values": [
      {"measurement": "half-life", "value": 2, "unit": "min"}
    ]},
    {"molecule": "CN(Cc1cncc2cn[nH]c12)C(=O)c1ccc(-c2cccc(F)c2)c(OC2CC2)c1", "note": "[C]", "values": [
      {"measurement": "half-life", "value": 4, "unit": "min"}
    ]},
    {"molecule": "CCOc1cc(C(=O)N(C)Cc2c[n+]([O-])cc3cn[nH]c23)ccc1-c1cccc(F)c1", "note": "[Compound 001]", "values": [
      {"measurement": "half-life", "value": "> 145", "unit": "min"}
    ]},
    {"molecule": "CN(Cc1c[n+]([O-])cc2cn[nH]c12)C(=O)c1ccc(-c2cccc(F)c2)c(OC2CC2)c1", "note": "[Compound 004]", "values": [
      {"measurement": "half-life", "value": "> 145", "unit": "min"}
    ]},
    {"molecule": "CN(Cc1cccc2cn[nH]c12)C(=O)c1ccc(-c2cccc(F)c2)c(OC2CC2)c1", "note": "[D]", "values": [
      {"measurement": "half-life", "value": 1.5, "unit": "min"}
    ]}
  ]
}
